According to article PMC117120 (BMC Biochemistry, 2002):
Numbering of substitutions follows the chain as printed. Like-named read-outs stand apart in the source and are kept apart here.

Tests used:
wt 5-HT3ASR = molecular target: T1, wt 5-HT3ASR (Mus musculus, UniProt P23979); conditions: for response amplitude: 4 s, representative trace
T1 sequence (P23979 24-483 isoform P23979-2 limits assumed): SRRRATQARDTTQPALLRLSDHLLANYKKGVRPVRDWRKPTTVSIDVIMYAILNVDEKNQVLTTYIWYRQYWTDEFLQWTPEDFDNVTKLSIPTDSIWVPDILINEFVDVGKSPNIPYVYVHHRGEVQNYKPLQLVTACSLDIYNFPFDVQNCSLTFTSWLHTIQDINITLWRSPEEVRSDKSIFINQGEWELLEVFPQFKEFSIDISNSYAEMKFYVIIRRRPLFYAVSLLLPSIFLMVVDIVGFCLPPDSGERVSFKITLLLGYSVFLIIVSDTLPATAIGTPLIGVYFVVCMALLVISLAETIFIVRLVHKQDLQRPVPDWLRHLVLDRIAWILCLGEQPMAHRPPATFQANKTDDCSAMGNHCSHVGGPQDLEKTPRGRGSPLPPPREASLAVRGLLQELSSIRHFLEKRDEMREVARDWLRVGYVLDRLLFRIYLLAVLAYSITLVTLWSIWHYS

Y152A mutant 5-HT3ASR = molecular target: T2, Y152A mutant 5-HT3ASR (Mus musculus, UniProt P23979, Y153A); assay: Whole cell patch clamp, tsA201 cells transfected with Y152A cDNA; format: cell-based; conditions: for response amplitude: 8 s, representative trace
T2 sequence (P23979 24-483 isoform P23979-2 Y153A): T1 sequence (P23979 24-483 isoform P23979-2 limits assumed) with Y130A

Y142A mutant 5-HT3ASR = molecular target: T3, Y142A mutant 5-HT3ASR (Mus musculus, UniProt P23979, Y143A); assay: Whole cell patch clamp, cells transfected with Y142A cDNA; format: cell-based; conditions: 5-HT concentrations of up to 1 mM
T3 sequence (P23979 24-483 isoform P23979-2 Y143A): T1 sequence (P23979 24-483 isoform P23979-2 limits assumed) with Y120A

Y140A mutant 5-HT3ASR = molecular target: T4, Y140A mutant 5-HT3ASR (Mus musculus, UniProt P23979, Y141A); assay: Whole cell patch clamp, cells transfected with Y140A cDNA; format: cell-based; conditions: 5-HT concentrations of up to 1 mM
T4 sequence (P23979 24-483 isoform P23979-2 Y141A): T1 sequence (P23979 24-483 isoform P23979-2 limits assumed) with Y118A

In the case of NCCc1c[nH]c2ccc(O)cc12 [5-HT, serotonin], the desensitization (wt 5-HT3ASR) is reported as “desensitized rapidly”, the “time to peak response” value (wt 5-HT3ASR) is reported as “less than 80 ms” and the response amplitude (wt 5-HT3ASR; 0.3 μM 5-HT) is reported as 0.03 nA. The response amplitude (wt 5-HT3ASR; 1.0 μM 5-HT) was 0.96 nA, the response amplitude (wt 5-HT3ASR; 3.0 μM 5-HT) was 2.5 nA and the response amplitude (wt 5-HT3ASR; 30.0 μM 5-HT) was 4.4 nA. For the same compound, the response amplitude (wt 5-HT3ASR; 100.0 μM 5-HT) was 3.9 nA, the “time for response to plateau” value (Y152A mutant 5-HT3ASR) was “several seconds” and the response amplitude (Y152A mutant 5-HT3ASR; 3.0 μM 5-HT) was 0.10 nA. It also gave a response amplitude (Y152A mutant 5-HT3ASR; 100 μM 5-HT) of 0.14 nA, a response amplitude (Y152A mutant 5-HT3ASR; 300.0 μM 5-HT) of 0.57 nA and a response amplitude (Y152A mutant 5-HT3ASR; 1.0 mM 5-HT) of 1.0 nA. For the same compound, the desensitization (Y152A mutant 5-HT3ASR; during the 8 s perfusion time) was “no desensitization”, the “whole cell response to 5-HT” value (Y142A mutant 5-HT3ASR) was “no responses” and the “whole cell response to 5-HT” value (Y140A mutant 5-HT3ASR) was “no responses”.
